For one molecule, AUCs dose proportionality results are on record in patent US11918551B2, “Methods of treating seizure disorders and Prader-Willi syndrome” (Ovid Therapeutics, Inc., priority 2017, dated 2024).

This data set in a line: plasma pharmacokinetics (elimination half-life, dose proportionality of Cmax and AUC). To be noted: in the dose range 5 mg-500 mg.

Description: “PK” refers to the pharmacokinetic profile. Cmax is defined as the highest plasma drug concentration estimated during an experiment (ng/ml). Tmax is defined as the time when Cmax is estimated (min). AUC0-∞ is the total area under the plasma drug concentration-time curve, from drug administration until the drug is eliminated (ng·hr/ml or μg·hr/ml). The area under the curve is governed by clearance. Clearance is defined as the volume of blood or plasma that is totally cleared of its content of drug per unit time (ml/min).

For the molecule `N[C@H]1C[C@@H](C(=O)O)CC1=C(F)F`, the AUCs dose proportionality entry was “greater than proportional increase”.
